According to patent US20220026420A1, “MOLECULES AND METHODS FOR IMPROVED IMMUNODETECTION OF SMALL MOLECULES SUCH AS HISTAMINE” (PRESIDENT AND FELLOWS OF HARVARD COLLEGE, priority 2018, published 2022):
Each block holds one compound with its values, some of them ahead of it.

How the values were obtained:
[1] = tested on: anti-histamine antibody; experiment: Competitive histamine ELISA with PEG linkers on streptavidin plates, anti-IgG HRP detection; type: binding
Experimental: To identify an antibody that recognizes free histamine with improved (lower) binding affinities, we used the PEG-mono-histidine linker (Structure 1) as a target with antibodies that we previously screened with BSA-histamine, i.e., the antibodies listed in FIG. 3A. […] The monovalent histidine linker (25 μM) 86 was added for 1 hour, and then 5 μg ml^−1 anti-histamine antibody was incubated with different concentrations of soluble histamine for 1 hour at room temperature on a shaker 88. Finally, anti-IgG labelled HRP 810 was used to detect the bound antibodies.
The monovalent histidine linker (25 μM) 86 was added for 1 hour, and then 5 μg ml^−1 anti-histamine antibody was incubated with different concentrations of soluble histamine for 1 hour at room temperature on a shaker 88. Finally, anti-IgG labelled HRP 810 was used to detect the bound antibodies.
Histamine detection assay could be performed in two formats. The first format includes the immobilization of histamine conjugates to the solid support while the second format includes the immobilization of anti-histamine antibody on the solid support. For the immobilization of histamine conjugates the immobilization sample was prepared in 0.2 M carbonate-bicarbonate buffer (pH 9.4). Immobilisation samples herein refers to BSA-histamine, Streptavidin, and not limited to BSA-Histidine Samples. A high binding polystyrene 96 well ELISA plate was coated with 100 microliters of immobilization sample and the plates were incubated overnight at 4° C. Each well was then washed thrice with 0.01M phosphate-buffered saline with 0.05% Tween 20 (pH 7.4). To each well was then added 250 microliters 1% BSA solution prepared in 0.01M phosphate-buffered saline with 0.05% Tween 20 (pH 7.4) for 1 hour at ambient temperature. Each well was then washed three times with 0.01M phosphate-buffered saline with 0.05% Tween 20 (pH 7.4). For Streptavidin coated plates, to each well was then added 100 microliters of linkers prepared in 0.1% BSA in 0.01M phosphate-buffered saline with 0.05% Tween 20 (pH 7.4) as described in the other sections for 2 hours at ambient temperature on a shaker at 260 rpm. Each well was then washed three times with 0.01M phosphate-buffered saline with 0.05% Tween 20 (pH 7.4). The plate was then incubated with 50 microlitres of different concentration of free histamine and co-incubated with anti-histamine antibody for 1 hour at ambient temperature. […]. Anti-histamine antibody was prepared in 0.1% BSA in 0.01M phosphate-buffered saline with 0.05% Tween 20 (pH 7.4). After the incubation, each well was washed three times with 0.01M phosphate-buffered saline with 0.05% Tween 20 (pH 7.4). […]

[2] = molecular target: anti-histamine antibody conjugated to HRP; experiment: Refined 5 min histamine ELISA with anti-histamine antibody conjugated to HRP; type: binding; conditions: for Kd: Hill equation fit without the 0 nM histamine data point, read-out: dissociation constant (Kd); for starting signal compared to PEG-mono histidine: 5 min assay
Experimental: The assay was further refined to decrease the total assay time. This was achieved by conjugating the anti-histamine antibody to the detection enzyme HRP 192 as depicted by FIG. 19. The resultant assay could be completed within 5 min. For the present study, only PEG-mono histidine and PEG-dual histidine were used. FIG. 20A and FIG. 20B show the results obtained from the study.
The data points obtained were fitted using a Hill equation which further assisted to characterize the linkers under study.
Histamine detection assay could be performed in two formats. The first format includes the immobilization of histamine conjugates to the solid support while the second format includes the immobilization of anti-histamine antibody on the solid support. For the immobilization of histamine conjugates the immobilization sample was prepared in 0.2 M carbonate-bicarbonate buffer (pH 9.4). Immobilisation samples herein refers to BSA-histamine, Streptavidin, and not limited to BSA-Histidine Samples. A high binding polystyrene 96 well ELISA plate was coated with 100 microliters of immobilization sample and the plates were incubated overnight at 4° C. Each well was then washed thrice with 0.01M phosphate-buffered saline with 0.05% Tween 20 (pH 7.4). To each well was then added 250 microliters 1% BSA solution prepared in 0.01M phosphate-buffered saline with 0.05% Tween 20 (pH 7.4) for 1 hour at ambient temperature. Each well was then washed three times with 0.01M phosphate-buffered saline with 0.05% Tween 20 (pH 7.4). For Streptavidin coated plates, to each well was then added 100 microliters of linkers prepared in 0.1% BSA in 0.01M phosphate-buffered saline with 0.05% Tween 20 (pH 7.4) as described in the other sections for 2 hours at ambient temperature on a shaker at 260 rpm. Each well was then washed three times with 0.01M phosphate-buffered saline with 0.05% Tween 20 (pH 7.4). The plate was then incubated with 50 microlitres of different concentration of free histamine and co-incubated with anti-histamine antibody for 1 hour at ambient temperature. […]. Anti-histamine antibody was prepared in 0.1% BSA in 0.01M phosphate-buffered saline with 0.05% Tween 20 (pH 7.4). After the incubation, each well was washed three times with 0.01M phosphate-buffered saline with 0.05% Tween 20 (pH 7.4). The plates were then incubated with a secondary antibody labelled with HRP prepared in 0.1% BSA in 0.01M phosphate-buffered saline with 0.05% Tween 20 (pH 7.4) in for 1 hour at ambient temperature. After the incubation, each well was washed three times with 0.01M phosphate-buffered saline with 0.05% Tween 20 (pH 7.4). Each well was then incubated with TMB turbo (150 microlitres) for 30 minute (measurement at a wavelength of 650 nm) followed by addition of 150 microlitres of 0.16 M Sulphuric acid to stop the solution in some examples where measurements are taken at a wavelength of 450 nm. […] Independent incubation time is described in each section.

[3] = tested on: anti-histamine antibody; experiment: Electrochemical biosensor for free histamine detection; type: binding; conditions: gold electrode, FIG. 12B
Experimental: The Immuno-assay developed on the ELISA plates was translated to an electrochemical platform to provide a biosensor for free histamine detection. The lowest concentration tested with the sensor was 2.7 nM which generated a statistically significant difference from the background. […] FIG. 12B is a semi-log plot showing the calibration curves for the electrochemical sensor using the structure depicted by FIG. 12A. Detection occurs as free […] competes and displaces Biotin-PEG6-Histidine conjugate from the anti-histamine.

[4] = tested on: anti-histamine antibody; experiment: Histamine ELISA in spiked human plasma samples, conventional plate versus BSA-glutaraldehyde surface chemistry; type: binding; conditions: FIG. 28
Experimental: In order for the assay design to be used for clinical applications for the rapid quantification of allergy severity, using clinical samples (e.g. human plasma, serum) is one of the most critical aspects. An ELISA plate was prepared using conventional means as shown in FIG. 19 using PEG-dual-histidine. In an alternative approach, an ELISA plate was prepared using the BSA-glutaraldehyde surface chemistry as previously described in international Application No. PCT/US2018/044076, the content of which is herein incorporated by reference. In contrast to the previously described system, no nanoparticles were used. Therefore BSA can be denatured and combined with glutaraldehyde and used to coat ELISA wells. This is then activated using and (1-ethyl-3-(3-dimethylaminopropyl)carbodiimide hydrochloride)/[…] (EDC/NHS) to link to streptavidin which allows attachment of biotin-PEG-dual-histidine. It can be clearly seen full blocking of the ELISA plate when human plasma samples are used for histamine detection. […] As per to date, no method exists to detect histamine in less than 10 minutes.

[5] = molecular target: anti-histamine antibody; experiment: 5-minute electrochemical assay in spiked human plasma samples; type: binding
Text: The Immuno-assay developed on the ELISA plates using PEG-dual Histidine was translated to an electrochemical platform to develop a biosensor for free histamine detection in human plasma samples.

[6] = tested on: Monoclonal Anti-Dinitrophenyl antibody conjugated with HRP; experiment: Competitive DNP ELISA with DNP linkers on streptavidin plates; type: binding, mouse; conditions: FIG. 25
Experimental: Monoclonal Anti-Dinitrophenyl antibody produced in mouse (D8406) and 2,4-Dinitrophenol (D198501 was purchased from Sigma. The anti-DNP antibody was directly conjugated with HRP using a commercial kit e.g., LIGHTENING-LINK™ Antibody Labeling Kits available from Novus Biolgicals. Once again ELISA plate coated with streptavidin was used as described in FIG. 19. After blocking, the plates were incubated with the respective linker. Different concentrations of DNP with anti-DNP antibody was co-incubated for 45 minutes at room temperature in the dark. After incubation, the wells were washed 3 times with 200 μL PBST and incubated with 150 μL TMB for 10 minutes. Finally, 150 μL of stop solution was added and absorbance measurement was observed. FIG. 25 is a plot showing ELISA results with Mono-DNP linker (blue) versus PEG-Dual-DNP linker (red). As with the dual histadine linkers, a clear difference could be seen between single and dual DNP linker. There is nearly a 30% increase in the signal intensity from single to dual DNP molecule.

[7] = tested on: anti-histamine antibody conjugated to HRP; experiment: ELISA affinity of anti-histamine antibody-HRP to different linkers, without free histamine; type: binding; conditions: 5 minutes, no free histamine, compared to PEG-mono-histidine linker, FIG. 26
Text: FIG. 26 is a plot of a comparison of PEG-mono histamine with PEG-mono histidine using streptavidin coated ELISA plates. As illustrated, the data presents the affinity of anti-histamine antibody conjugated to HRP to different histamine conjugate linkers. As in the previous studies, streptavidin modified plates were used, here to study PEG-Mono-Histamine, PEG-mono-Histidine, PEG-phenyl-histidine and PEG-glutamate-histidine. The assay format was as per FIG. 19 without free histamine in the solution. The modified plates were then exposed to different concentrations of anti-histamine antibodies conjugated with HRP for 5 minutes.

[8] = tested on: anti-histamine antibody labelled with HRP; experiment: 5 min histamine ELISA with BSA-PEG-mono-Histidine conjugate coated plates; type: binding; conditions: 5 min incubation, FIG. 23
Experimental: The thiol-PEG-mono Histidine linker was attached to BSA as follows. A 1 mL aliquot of maleimide conjugation buffer obtained from Thermo scientific was added to 10 mg of purified thiol-PEG-mono Histidine linker. Subsequently, the 1 mL solution containing the thiol-PEG-mono Histidine was added to 5 mg of commercially available BSA-maleimide substrate and allowed to react at room temperature for 4 h to provide the histidine-PEG-BSA conjugate. The histidine-PEG-BSA conjugate was purified using a 10K spin column. The histidine-PEG-BSA conjugate obtained was then used to modify the ELISA plate wells and assay was performed using a 5 min incubation time. […] The steps include coating the plates with BSA-PEG-Histidine conjugate 222, blocking with BSA 224, and incubation with HRP labeled anti-histamine antibody and free histamine 226. FIG. 23 presents the results obtained and compared to BSA-histamine (commercial, FIG. 5). […] The used and anti-histamine antibody labelled with HRP in a 5 min incubation time assay.

Kd ([2]; FIG. 21): 449 nM
Compound: NC(Cc1c[nH]cn1)C(=O)NCCOCCOCCOCCOCCOCCOCCNC(=O)CCCCC1SC[C@H]2NC(=O)N[C@@H]12 (stereo partly drawn) [PEG-mono Histidine, Biotin-PEG-Mono-Histidine]
signal enhancement and sensitivity versus immobilized BSA-histamine ([1]; FIG. 10): significantly improved
lowest concentration tested generating a statistically significant difference from the background [3]: 2.7 nM

antibody binding specificity and sensitivity compared to the single histidine conjugate ([1]; FIG. 11): significant improvement
Kd ([2]; FIG. 21): 280 nM
Kd ([5]; Hill equation fit without the 0 nM histamine data point, human plasma): 6.76 nM
Compound: NC(=O)C(CCCCNC(=O)C(CCCCNC(=O)C(N)Cc1c[nH]cn1)NC(=O)C(N)Cc1c[nH]cn1)NC(=O)CCOCCOCCOCCOCCNC(=O)CCCCC1SC[C@H]2NC(=O)N[C@@H]12 (stereo partly drawn) [PEG-dual Histidine, Biotin-PEG-Dual-Histidine]
starting signal compared to PEG-mono-histidine ([1]; 5 min incubation of anti-histamine antibody, FIG. 18A): increased starting signal
starting signal compared to PEG-mono histidine [2]: higher starting signal
dynamic range compared to PEG-mono histidine ([2]; FIG. 21): broader dynamic range
histamine detection in spiked human plasma ([4]; BSA-glutaraldehyde surface chemistry, under 10-minute assay): clear detection of histamine
histamine detection in spiked human plasma ([4]; ELISA plate prepared by conventional means): full blocking
histamine concentration generating a statistically significant current change ([5]; spiked human plasma, FIG. 24): 3.75 nM

Compound: NC(=O)C(CCCCNC(=O)C(CCCCNc1cc([N+](=O)[O-])ccc1[N+](=O)[O-])Nc1cc([N+](=O)[O-])ccc1[N+](=O)[O-])NC(=O)CCOCCOCCOCCOCCNC(=O)CCCCC1SC[C@H]2NC(=O)N[C@@H]12 (stereo partly drawn) [dual DNP, Biotin-PEG-Dual-DNP]
increase in the signal intensity from single to dual DNP molecule ([6]; 45 min co-incubation): ~30%
dynamic range compared to single DNP linker [6]: broader dynamic range

binding affinity of anti-histamine antibody [7]: decreased significantly
Compound: NC(=O)C(CCCCNC(=O)C(Cc1ccccc1)NC(=O)C(N)Cc1cnc[nH]1)NC(=O)CCOCCOCCOCCOCCNC(=O)CCCCC1SC[C@@H]2NC(=O)N[C@H]12 (stereo partly drawn) [PEG-phenyl-histidine, Biotin-PEG-Phenyl-Histadine]
sensitivity of the assay compared to PEG-mono-histidine ([2]; 5-minute histamine assay, FIG. 27): no significant difference
starting signal compared to PEG-mono histidine [2]: lower starting signal

binding affinity of anti-histamine antibody [7]: nearly no binding
Compound: NC(=O)C(CCCCNC(=O)C(CCC(=O)O)CC(=O)C(N)Cc1cnc[nH]1)NC(=O)CCOCCOCCOCCOCCNC(=O)CCCCC1SC[C@H]2NC(=O)N[C@@H]12 (stereo partly drawn) [PEG-glutamate-histidine, Biotin-PEG-Glutamate-Histadine]

binding affinity of anti-histamine antibody [7]: high binding affinity
Compound: biotin-EG6-histamine [PEG-mono-histamine]
detection of free histamine ([1]; concentration range studied, streptavidin coated plates, FIG. 15): could not be detected

Compound: PEG-mono Histidine modified BSA: thiol-PEG-mono Histidine linker (Structure 5) attached to commercially available BSA-maleimide
sensitivity towards free histamine compared to BSA-histamine (commercial) [8]: increased sensitivity
